“Also recorded” adds a separate entry of the source.
Tests used:
[1] = tested on: MOLT-4 (Leukemia) cell line; test: cells; assay type: cell-based; settings: Homo sapiens, MOLT-4, Molt-4 leukemia cell line; read-out: IC50
In short: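 Target cells, drawn from cancerous lines and normal preparations, are treated with compound and assessed by sulforhodamine B. From this, the concentration killing one-half of the treated cells is calculated as the IC50.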

[2] = tested on: NHDF normal human dermal fibroblasts; test: cells; assay type: cell-based; settings: NHDF
Method: (§1) In addition to the screening already discussed, several of the before-described compounds and chimeras were screened against several or all of a panel of ten to twenty-five cancerous cell lines as target cells and seven "normal" cell preparations. This screening utilized a sulforhodamine B cytotoxidity assay as discussed below.
(§2) IC50 values; i.e., the concentration of Compound required to kill one-half of the treated cells, were then calculated.
NHDF Normal human dermal fibroblasts

SK-Mel-28 melanoma cells = test: Sulforhodamine B cytotoxicity, SK-Mel-28; assay type: cell-based; settings: Homo sapiens, SK-MEL-28, SK-Mel-28; read-out: IC50
Method: as §1, §2

[3] = tested on: Ovcar-3 ovarian carcinoma cells; test: Sulforhodamine B cytotoxicity, Ovcar-3; assay type: cell-based; settings: Homo sapiens, OVCAR-3, Ovcar-3; read-out: IC50
Method: as §1, §2

[4] = tested on: HT-29 colon carcinoma cells; test: Sulforhodamine B cytotoxicity, HT-29; assay type: cell-based; settings: Homo sapiens, HT-29, colon carcinoma H-29 (Table 4) / HT-29 (Table 5); read-out: IC50
Method: as §1, §2

[5] = tested on: MCF-7 breast carcinoma cells; test: Sulforhodamine B cytotoxicity, MCF-7; assay type: cell-based; settings: Homo sapiens, MCF7, MCF-7; read-out: IC50
Method: as §1, §2

[6] = tested on: MCF-7(ADR) breast carcinoma cells; test: Sulforhodamine B cytotoxicity, MCF-7/ADR; assay type: cell-based; settings: Homo sapiens, NCI/ADR-RES, Adriamycin resistant
Method: as §1, §2

[7] = tested on: H-322 lung carcinoma cells; test: Sulforhodamine B cytotoxicity, H-322; assay type: cell-based; settings: NCI-H322; H-322; read-out: IC50
Method: as §1, §2

[8] = tested on: Capan-1 pancreatic carcinoma cells; test: Sulforhodamine B cytotoxicity, Capan-1; assay type: cell-based; settings: Homo sapiens, CAPAN-1, Capan-1; read-out: IC50
Method: as §1, §2

[9] = tested on: HL-60 promyeocytic leukemia cells; test: Sulforhodamine B cytotoxicity, HL-60; assay type: cell-based; settings: Homo sapiens, HL-60, HL-60; read-out: IC50
Method: as §1, §2

[10] = tested on: PC-3 prostate carcinoma cells; test: Sulforhodamine B cytotoxicity, PC-3; assay type: cell-based; settings: Homo sapiens
Method: as §1, §2

[11] = tested on: SIHA cervical carcinoma cells; test: Sulforhodamine B cytotoxicity, SIHA; assay type: cell-based; settings: Homo sapiens
Method: as §1, §2

[12] = tested on: NHEK normal human epidermal keratinocytes; test: Sulforhodamine B cytotoxicity, NHEK; assay type: cell-based; settings: normal cells
Method: as §1, §2
NHEK Normal human epidermal keratinocytes

[13] = tested on: HMEC human mammary epithelial cells; test: Sulforhodamine B cytotoxicity, HMEC; assay type: cell-based; settings: Homo sapiens, normal cells
Method: as §1, §2
HMEC Human mammary epithelial cells

[14] = tested on: CHO Chinese hamster ovary cells; test: Sulforhodamine B cytotoxicity, CHO; assay type: cell-based; settings: Cricetulus griseus; CHO, normal cells
Method: as §1, §2

Water solubility = assay type: physicochemical
cancer cell lines = test: cells; assay type: cell-based; settings: Average data obtained from 5~10 cell lines; read-out: IC50 (average)
[15] = tested on: MB49 murine bladder carcinoma cells; test: 6-well cytotoxicity assay, MB49; assay type: cell-based; settings: MB-49
Method: MIA PaCa-2 cells, MB-49, CV-1 or WI-38 cells were loaded into each well of a 6-well plate at a density of 100,000 cells/well in 3 ml culture medium. They were incubated for 4 hours (37° C., 7 percent CO2). Then 6 microliters of solution containing a compound to be assayed were added into 3 ml of medium (RPMI-1640, with 5 percent fetal bovine serum and 1 percent glutamine) in a 500X dilution so that in one well ethanol was added to make a 0.2 percent ethanol control. The plates were then incubated for 4 days (37° C., 7 percent CO2). The medium was then drained, crystal violet dye (Hucker formula) was added to cover the well bottoms and then they were rinsed with tap water until rinses were clear. The stained cells were solubilized for quantitation with Sarkosyl solution (N-Lauryl sarcosine, 1 percent in water) at 3 ml/well. The absorbance of the solution was then read at 590-650 nm.

φX174 Form I DNA = settings: literature; cited from earlier work
[16] = mice, comparison value; cited from earlier work

## C[N+](C)(C)CC(=O)OCCOc1ccc2c(c1)[C@@]13O[C@]14CCC[C@H]3C#C/C=C\C#C[C@@H]4N2C(=O)OCCS(=O)(=O)c1ccccc1 (relative stereo) [Compound 250]
[1]
  IC50: ~100 µM
[2]; Homo sapiens, normal cells, read-out: IC50
  IC50: 6.3 µM
SK-Mel-28 melanoma cells
  IC50: 3.1 µM
[3]
  IC50: > 0.098 µM
[4]
  IC50: 0.19 µM
[5]
  IC50: > 0.098 µM
[6]
  IC50: 0.19 µM
[7]
  IC50: 13 µM
[8]
  IC50: > 0.098 µM
[9]
  IC50: > 0.098 µM
[10]
  IC50: 1.6 µM
[11]
  IC50: > 0.098 µM
[12]
  IC50: 1.6 µM
[13]
  IC50: 3.1 µM
[14]
  IC50: 0.098 µM
Water solubility
  water solubility: enhanced water solubility as compared to Compound 153; also recorded: more water soluble derivative of Compound 153

## O=C(Oc1ccccc1)N1c2ccccc2C23OC24CCCC3(O)C#C/C=C\C#CC14 (stereo not drawn) [Compound 2]
Cancer cell lines
  IC50: 6.3 µM
[15]
  anti-tumor cell activity: more active against the cancerous MB-49 cells than against non-transformed CV-1 African green monkey kidney cells (ATCC CCL 70) or WI-38 human lung cells

## CCN[C@H]1CO[C@@H](O[C@H]2[C@H](O[C@H]3C#C/C=C\C#C[C@]4(O)CC(=O)C(NC(=O)OC)=C3/C4=C\CSSSC)O[C@H](C)[C@@H](NO[C@H]3C[C@H](O)[C@H](SC(=O)c4c(C)c(I)c(O[C@@H]5O[C@@H](C)[C@H](O)[C@@H](OC)[C@H]5O)c(OC)c4OC)[C@@H](C)O3)[C@@H]2O)C[C@@H]1OC [Calicheamicin]
[2]; control drugs, read-out: Range of Average IC50 Values, NHDF
  IC50: 0.0025 µM
φX174 Form I DNA
  DNA cleavage sequence specificity: double DNA strand cuts at specific sequences
[16]
  LD50: 5 µg/kg

Reference: US5281710A, “Dynemicin analogs: synthesis, methods of preparation and use” (The Scripps Research Institute, priority 1992, dated 1994)
